# Results published in ChEMBL document CHEMBL4680122, “Design, synthesis and biological evaluation of new Axl kinase inhibitors containing 1,3,4-oxadiazole acetamide moiety as novel linker” (Eur J Med Chem, 2020).
# Activity calls are given as the source filed them. The calls are words filed in the database; no cut-off is given here.
# Assays:
# A549 [1] = test: Potency index, ratio of foretinib IC50 to test compound IC50 for antiproliferative activity against human A549 cells; assay type: functional
# PC-3 = test: Potency index, ratio of foretinib IC50 to test compound IC50 for antiproliferative activity against human PC-3 cells; assay type: functional
# MDA-MB-231 = test: Antiproliferative activity against human MDA-MB-231 cells measured after 72 hrs by MTT assay; assay type: functional, cell-based
# [2] = target: T1, Tyrosine-protein kinase receptor UFO (Homo sapiens, UniProt P30530); test: Inhibition of human N-terminal GST-fused Axl cytoplasmic domain (464 to 885 residues) expressed in baculovirus expression system using CSKtide as substrate measured after 1 hr by mobility shift assay
# T1 sequence (P30530 whole entry): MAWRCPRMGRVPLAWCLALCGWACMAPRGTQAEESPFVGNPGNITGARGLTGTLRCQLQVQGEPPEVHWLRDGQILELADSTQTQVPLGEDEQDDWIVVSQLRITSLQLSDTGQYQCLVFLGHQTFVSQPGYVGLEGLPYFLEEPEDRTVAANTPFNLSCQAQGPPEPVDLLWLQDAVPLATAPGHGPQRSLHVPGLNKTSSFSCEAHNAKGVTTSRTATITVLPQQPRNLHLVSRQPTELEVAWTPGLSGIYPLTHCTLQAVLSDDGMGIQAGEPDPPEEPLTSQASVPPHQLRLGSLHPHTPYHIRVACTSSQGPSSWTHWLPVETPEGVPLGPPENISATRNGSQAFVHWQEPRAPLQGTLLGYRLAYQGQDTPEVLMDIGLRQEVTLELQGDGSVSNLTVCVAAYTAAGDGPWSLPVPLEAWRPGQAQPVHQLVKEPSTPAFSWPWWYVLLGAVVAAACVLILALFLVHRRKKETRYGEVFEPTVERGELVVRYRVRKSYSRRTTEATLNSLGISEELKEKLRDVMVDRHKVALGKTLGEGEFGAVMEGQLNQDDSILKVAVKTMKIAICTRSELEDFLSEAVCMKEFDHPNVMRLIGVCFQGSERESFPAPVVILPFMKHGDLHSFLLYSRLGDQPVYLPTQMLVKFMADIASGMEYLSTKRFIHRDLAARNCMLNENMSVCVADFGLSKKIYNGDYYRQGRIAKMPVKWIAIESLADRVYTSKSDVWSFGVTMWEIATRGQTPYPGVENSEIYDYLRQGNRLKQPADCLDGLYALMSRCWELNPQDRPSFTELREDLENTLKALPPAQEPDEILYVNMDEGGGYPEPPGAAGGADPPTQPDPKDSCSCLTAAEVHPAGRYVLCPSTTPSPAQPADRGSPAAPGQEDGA
# [3] = target: Mast/stem cell growth factor receptor Kit (Homo sapiens, UniProt P10721); test: Inhibition of human N-terminal GST-tagged c-Kit cytoplasmic domain (544 to end residues) expressed in baculovirus infected Sf21 insect cells using peptide substrate measured after 1 hr by mobility shift assay
# Chain of Mast/stem cell growth factor receptor Kit (P10721 whole entry, the tested form may be a part): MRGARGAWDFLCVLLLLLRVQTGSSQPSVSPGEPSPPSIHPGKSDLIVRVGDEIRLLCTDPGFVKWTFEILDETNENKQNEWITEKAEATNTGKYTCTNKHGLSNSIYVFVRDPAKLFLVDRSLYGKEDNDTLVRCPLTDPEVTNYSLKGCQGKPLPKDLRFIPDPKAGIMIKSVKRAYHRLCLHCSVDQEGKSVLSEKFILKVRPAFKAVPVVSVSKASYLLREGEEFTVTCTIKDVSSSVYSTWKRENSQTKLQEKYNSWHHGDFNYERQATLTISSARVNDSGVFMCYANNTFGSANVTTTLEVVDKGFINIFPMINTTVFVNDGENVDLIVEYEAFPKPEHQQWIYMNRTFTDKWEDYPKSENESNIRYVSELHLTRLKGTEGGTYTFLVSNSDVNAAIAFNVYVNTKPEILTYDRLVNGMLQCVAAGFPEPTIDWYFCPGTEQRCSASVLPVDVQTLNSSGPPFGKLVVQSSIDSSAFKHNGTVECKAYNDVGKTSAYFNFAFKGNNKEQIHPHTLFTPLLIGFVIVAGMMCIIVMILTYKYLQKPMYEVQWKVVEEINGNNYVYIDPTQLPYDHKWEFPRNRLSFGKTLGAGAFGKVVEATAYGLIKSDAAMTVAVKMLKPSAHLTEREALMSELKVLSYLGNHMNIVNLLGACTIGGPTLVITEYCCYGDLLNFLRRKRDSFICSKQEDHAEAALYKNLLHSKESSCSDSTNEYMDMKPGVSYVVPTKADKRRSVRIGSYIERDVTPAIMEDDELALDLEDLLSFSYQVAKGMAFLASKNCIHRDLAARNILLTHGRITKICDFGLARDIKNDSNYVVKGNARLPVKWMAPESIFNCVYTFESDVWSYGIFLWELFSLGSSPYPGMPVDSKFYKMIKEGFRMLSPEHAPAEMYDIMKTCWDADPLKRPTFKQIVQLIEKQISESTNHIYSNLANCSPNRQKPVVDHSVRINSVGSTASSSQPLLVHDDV
# [4] = target: T2, Tyrosine-protein kinase receptor TYRO3 (Homo sapiens, UniProt Q06418); test: Inhibition of Tyro3 (unknown origin)
# T2 sequence (Q06418 whole entry): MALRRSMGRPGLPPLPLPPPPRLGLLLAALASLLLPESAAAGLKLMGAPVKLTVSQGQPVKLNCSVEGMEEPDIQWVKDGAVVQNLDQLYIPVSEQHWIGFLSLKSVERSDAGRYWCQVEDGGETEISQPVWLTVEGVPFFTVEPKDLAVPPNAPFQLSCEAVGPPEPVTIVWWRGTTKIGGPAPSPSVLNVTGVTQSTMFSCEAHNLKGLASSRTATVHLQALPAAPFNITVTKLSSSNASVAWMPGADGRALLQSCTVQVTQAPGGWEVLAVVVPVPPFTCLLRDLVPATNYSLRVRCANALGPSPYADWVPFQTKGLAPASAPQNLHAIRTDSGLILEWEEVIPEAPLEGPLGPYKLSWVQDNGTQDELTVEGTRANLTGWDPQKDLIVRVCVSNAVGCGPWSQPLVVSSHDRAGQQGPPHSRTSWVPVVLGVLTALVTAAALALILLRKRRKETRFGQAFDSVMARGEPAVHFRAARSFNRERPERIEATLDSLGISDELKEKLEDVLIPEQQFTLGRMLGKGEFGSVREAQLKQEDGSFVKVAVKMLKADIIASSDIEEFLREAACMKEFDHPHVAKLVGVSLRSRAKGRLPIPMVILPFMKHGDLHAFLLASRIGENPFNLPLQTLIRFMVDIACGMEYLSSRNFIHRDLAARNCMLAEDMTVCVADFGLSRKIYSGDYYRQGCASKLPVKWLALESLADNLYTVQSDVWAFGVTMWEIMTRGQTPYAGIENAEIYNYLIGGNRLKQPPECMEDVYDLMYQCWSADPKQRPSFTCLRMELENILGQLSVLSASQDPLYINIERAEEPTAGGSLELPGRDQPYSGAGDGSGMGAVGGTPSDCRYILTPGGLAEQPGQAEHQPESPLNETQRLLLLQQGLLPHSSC
# [5] = target: Macrophage-stimulating protein receptor (Homo sapiens) (UniProt Q04912); test: Inhibition of Ron (unknown origin) at 200 nM relative to control
# Chain of Macrophage-stimulating protein receptor (Homo sapiens) (Q04912 25-304 limits assumed): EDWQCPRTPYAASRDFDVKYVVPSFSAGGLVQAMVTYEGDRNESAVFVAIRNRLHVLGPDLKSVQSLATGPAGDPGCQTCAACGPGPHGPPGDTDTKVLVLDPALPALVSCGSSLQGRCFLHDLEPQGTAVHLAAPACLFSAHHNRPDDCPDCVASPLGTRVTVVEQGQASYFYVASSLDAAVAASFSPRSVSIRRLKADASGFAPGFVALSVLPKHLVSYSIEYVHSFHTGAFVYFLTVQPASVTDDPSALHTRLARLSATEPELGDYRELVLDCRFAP
# Chain of Macrophage-stimulating protein receptor (Homo sapiens) (Q04912 310-1400 limits assumed): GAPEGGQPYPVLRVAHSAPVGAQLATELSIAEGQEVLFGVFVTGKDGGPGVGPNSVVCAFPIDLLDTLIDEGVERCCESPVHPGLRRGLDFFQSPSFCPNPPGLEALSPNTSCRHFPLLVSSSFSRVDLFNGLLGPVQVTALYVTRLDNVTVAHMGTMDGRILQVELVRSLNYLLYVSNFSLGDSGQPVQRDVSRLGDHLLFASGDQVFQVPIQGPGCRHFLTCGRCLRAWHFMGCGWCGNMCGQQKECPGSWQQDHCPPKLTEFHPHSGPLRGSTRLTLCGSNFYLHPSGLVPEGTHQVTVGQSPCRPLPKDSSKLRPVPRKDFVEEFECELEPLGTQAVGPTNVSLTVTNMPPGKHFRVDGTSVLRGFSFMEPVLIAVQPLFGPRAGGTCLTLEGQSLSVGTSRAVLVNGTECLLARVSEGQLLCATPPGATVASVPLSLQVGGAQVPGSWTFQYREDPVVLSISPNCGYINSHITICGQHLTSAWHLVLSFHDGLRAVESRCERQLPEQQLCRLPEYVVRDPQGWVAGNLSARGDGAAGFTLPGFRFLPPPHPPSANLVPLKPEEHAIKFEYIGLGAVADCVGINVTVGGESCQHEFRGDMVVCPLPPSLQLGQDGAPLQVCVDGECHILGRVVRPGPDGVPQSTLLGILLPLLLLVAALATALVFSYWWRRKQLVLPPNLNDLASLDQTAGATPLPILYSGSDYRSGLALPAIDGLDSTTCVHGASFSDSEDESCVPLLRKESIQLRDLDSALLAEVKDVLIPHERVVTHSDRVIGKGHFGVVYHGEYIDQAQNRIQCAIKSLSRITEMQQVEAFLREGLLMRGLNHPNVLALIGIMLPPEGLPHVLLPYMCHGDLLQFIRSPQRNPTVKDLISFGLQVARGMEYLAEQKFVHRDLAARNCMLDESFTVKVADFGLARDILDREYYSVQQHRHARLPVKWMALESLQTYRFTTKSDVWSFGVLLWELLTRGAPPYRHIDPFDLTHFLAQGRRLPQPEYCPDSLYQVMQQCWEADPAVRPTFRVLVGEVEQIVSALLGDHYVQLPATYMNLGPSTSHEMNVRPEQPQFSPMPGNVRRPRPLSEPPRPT
# [6] = target: Tyrosine-protein kinase receptor UFO (Homo sapiens) (UniProt P30530); details: dose 100.0 nM, time 1.0 hrs
# A549 [7] = test: cells; details: Homo sapiens, A549, 72 h
# Description: Antiproliferative activity against human A549 cells measured after 72 hrs by MTT assay
smiles,measurement,setting,value
COc1cc2c(Oc3ccc(NC(=O)C4(c5nnc(-c6ccc(F)cc6)o5)CC4)cc3F)ccnc2cc1OCCCN1CCCCC1,Ratio IC50,A549 [1],1.9
same,Ratio IC50,PC-3,1.54
same,Activity,MDA-MB-231,Active
same,IC50,[2],10 nM
same,IC50,[3],63 nM
same,IC50,[4],> 200 nM
same,inhibition,[5],> 80%
same,inhibition,[6],93.7%
same,IC50,A549 [7],53 nM
